In US20110009332A1, “Therapeutic Treatment Of Wounds” (SOUTHWEST RESEARCH INSTITUTE, priority 2009, published 2011):

Target: 20S proteasomes (Homo sapiens, UniProt P28074)
Assay: Inhibition of 20S proteasome enzyme activity
Type: biochemical
Details: 0 nM to 10,000 nM, FIGS. 7-9
Protocol: The IC50 may be understood as the amount of a particular substance/molecule needed to inhibit a given biological process in vitro by 50% and may be an indicator of the potency of a compound. The activity of the proteasome may be quantified by measuring the amount of fluorescence produced by cleavage of a fluorogenic substrate, such as LLVY-AMC, which when released by proteasomal cleavage, may emit fluorescent light.
The enzyme activity of 20S proteasomes was measured upon increasing addition of the proteasome inhibitors PS-1, curcumin and genestein in concentrations ranging from 0 nM to 10,000 nM. In particular, FIG. 7 illustrates the inhibition of 20S proteasomes upon the addition of PS-1. […] FIG. 8 illustrates the inhibition of the 20S proteasomes upon the addition of curcumin. […] FIG. 9 illustrates the inhibition of the 20S proteasomes upon the addition of genestein.

Question: `O=c1c(-c2ccc(O)cc2)coc2cc(O)cc(O)c12` [genestein] was tested. Which “enzyme activity of 20S proteasomes with increasing inhibitor concentration (in words)” value did it give?
Answer: relatively smaller decrease in enzyme activity
